Test system: liver fibrosis gene panel (770 genes)
Assay: Nanostring nCounter Fibrosis panel gene expression in liver of DEN-injected mice
Assay type: in vivo, mouse
Conditions: vs vehicle
Procedure: Nanostring Analysis. RNA was extracted from paired liver and tumor tissue from vehicle, Compound I-1 (100 mg/kg) and Compound I-32 (100 mg/kg) treated mice using an RNeasy kit (Qiagen, Calif., USA) as per manufacturer's protocol. All RNA samples passed the BioAnalyzer quality control test. The expression of target genes in liver and tumor were analyzed using the nCounter Fibrosis and Cancer Panel (NanoString Technologies, Inc., WA, USA), respectively according to manufacturer's protocol at the McMaster Genomics Facility. Technical and biological normalization against global geometric mean was performed in nSolver 4.0 software (NanoString Technologies). Technical normalization was performed in the nSolver software (version 4.0.70) by normalizing sample target raw counts to the geometric mean of positive control spike-ins. Biological normalization was performed by normalizing sample target raw counts to the geometric mean of selected housekeeping genes (Ppia, Nubp1, Nol7, Armh3, Rplp0, Cnot10, Pgk1, and Acad9). Pathway scores were calculated as the first principal component of the normalized expression values for all genes in each pathway and samples were compiled according to experimental groups to determine average pathway scores. Statistical significance was calculated between experimental groups using multiple t-tests and p-values were corrected for multiple comparisons using Benjamin-Hochberg false discovery rate.
Molecular analysis. To identify the pathways modulated in the liver and tumor tissue, nanostring analysis of fibrosis and cancer, pathways, respectively were completed in an n=8 mice treated with vehicle or Compound I-32 or Compound I-1 at 100 mg/kg.

## CC(C)(CCCCc1ccc(CCCCC(C)(C)C(=O)O)cc1)C(=O)O [Compound I-1, 6-[4-(5-carboxy-5-methylhexyl)-phenyl]-2,2-dimethylhexanoic acid]
NM_011602, 100 mg/kg
  Tin1 Log2FC: −0.237
NM_011660, 100 mg/kg
  Txn1 Log2FC: 0.281
NM_011697, 100 mg/kg
  Vegfb Log2FC: 0.603
NM_011701, 100 mg/kg
  Vim Log2FC: −0.309
NM_011996, 100 mg/kg
  Adh4 Log2FC: −0.808
NM_013474, 100 mg/kg
  Apoa2 Log2FC: 0.172
NM_013475, 100 mg/kg
  Apoh Log2FC: −0.225
NM_013485, 100 mg/kg
  C9 Log2FC: −1.55
NM_013495, 100 mg/kg
  Cpt1a Log2FC: −0.302
NM_013497, 100 mg/kg
  Creb3 Log2FC: −0.38
NM_013534, 100 mg/kg
  P3h3 Log2FC: −0.96
NM_013545, 100 mg/kg
  Ptpn6 Log2FC: 0.326
NM_013770, 100 mg/kg
  Slc25a10 Log2FC: 0.508
NM_013819, 100 mg/kg
  H2-M3 Log2FC: −0.69
NM_013842, 100 mg/kg
  Xbp1 Log2FC: −0.397
NM_015734, 100 mg/kg
  Col5a1 Log2FC: −0.513
NM_015783, 100 mg/kg
  Isg15 Log2FC: −0.727
NM_016704, 100 mg/kg
  C6 Log2FC: −0.969
NM_016769, 100 mg/kg
  Smad3 Log2FC: −0.317
NM_016849, 100 mg/kg
  Irf3 Log2FC: −0.154
NM_018871, 100 mg/kg
  Ywhag Log2FC: 0.305
NM_019395, 100 mg/kg
  Fbp1 Log2FC: −0.878
NM_019443, 100 mg/kg
  Ndufa1 Log2FC: 0.226
NM_019775, 100 mg/kg
  Cpb2 Log2FC: −0.58
NM_019883, 100 mg/kg
  Uba52 Log2FC: 0.484
NM_019912, 100 mg/kg
  Ube2d2a Log2FC: −0.237
NM_019993, 100 mg/kg
  Aldh9a1 Log2FC: 0.545
NM_020581, 100 mg/kg
  Angpti4 Log2FC: 0.707
NM_020583, 100 mg/kg
  Isg20 Log2FC: −0.48
NM_021022, 100 mg/kg
  Abcb11 Log2FC: −0.442
NM_021297, 100 mg/kg
  Tlr4 Log2FC: −0.608
NM_021455, 100 mg/kg
  Mlxipl Log2FC: 0.439
NM_021704, 100 mg/kg
  Cxcl12 Log2FC: −0.597
NM_023114, 100 mg/kg
  Apoc3 Log2FC: −0.657
NM_023125, 100 mg/kg
  Kng1 Log2FC: −0.396
NM_023158, 100 mg/kg
  Cxcl16 Log2FC: −0.374
NM_023913, 100 mg/kg
  Em1 Log2FC: −0.533
NM_024171, 100 mg/kg
  Sec61b Log2FC: −0.355
NM_024264, 100 mg/kg
  Cyp27a1 Log2FC: −0.594
NM_024406, 100 mg/kg
  Fabp4 Log2FC: 1.01
NM_025287, 100 mg/kg
  Spop Log2FC: 0.186
NM_025316, 100 mg/kg
  Ndufb5 Log2FC: 0.415
NM_025448, 100 mg/kg
  Ssr2 Log2FC: −0.177
NM_025498, 100 mg/kg
  Psenen Log2FC: −0.126
NM_025523, 100 mg/kg
  Ndufc1 Log2FC: 0.438
NM_025628, 100 mg/kg
  Cox6b1 Log2FC: 0.532
NM_025641, 100 mg/kg
  Uqcrh Log2FC: 0.311
NM_025710, 100 mg/kg
  Uqcrfs1 Log2FC: 0.255
NM_025735, 100 mg/kg
  Map1lc3a Log2FC: 0.807
NM_026061, 100 mg/kg
  Ndufb8 Log2FC: 0.327
NM_026129, 100 mg/kg
  Erp29 Log2FC: −0.217
NM_026219, 100 mg/kg
  Uqcrb Log2FC: 0.476
NM_026304, 100 mg/kg
  Hikeshi Log2FC: 0.233
NM_026474, 100 mg/kg
  Sugt1 Log2FC: 0.185
NM_026566, 100 mg/kg
  Atg101 Log2FC: −0.436
NM_026688, 100 mg/kg
  Ndufs3 Log2FC: 0.26
NM_026904, 100 mg/kg
  Anapc10 Log2FC: −0.291
NM_027320, 100 mg/kg
  Ifi35 Log2FC: −0.465
NM_028132, 100 mg/kg
  Pgm2 Log2FC: 0.361
NM_028398, 100 mg/kg
  Phykpl Log2FC: −0.165
NM_029094, 100 mg/kg
  Pik3cb Log2FC: −0.421
NM_030682, 100 mg/kg
  Tlr1 Log2FC: −1.09
NM_030701, 100 mg/kg
  Hcar2 Log2FC: 1.71
NM_030703, 100 mg/kg
  Cpn1 Log2FC: 0.371
NM_031197, 100 mg/kg
  Slc2a2 Log2FC: −0.543
NM_031248, 100 mg/kg
  Lamtor2 Log2FC: 0.195
NM_033325, 100 mg/kg
  Loxl2 Log2FC: −0.689
NM_033562, 100 mg/kg
  Derl2 Log2FC: −0.334
NM_080560, 100 mg/kg
  Ube2n Log2FC: −0.15
NM_130450, 100 mg/kg
  Elovl6 Log2FC: 0.819
NM_133360, 100 mg/kg
  Acaca Log2FC: 0.655
NM_133862, 100 mg/kg
  Fgg Log2FC: −0.517
NM_133904, 100 mg/kg
  Acacb Log2FC: 0.612
NM_134103, 100 mg/kg
  Il1rap Log2FC: −0.815
NM_138748, 100 mg/kg
  Ptpa Log2FC: 0.372
NM_139300, 100 mg/kg
  Mylk Log2FC: −0.458
NM_144559, 100 mg/kg
  Fcgr4 Log2FC: −0.541
NM_144903, 100 mg/kg
  Aldob Log2FC: −0.665
NM_144938, 100 mg/kg
  C1s1 Log2FC: −0.902
NM_145367, 100 mg/kg
  Txndc5 Log2FC: −0.284
NM_146145, 100 mg/kg
  Jak1 Log2FC: −0.203
NM_146148, 100 mg/kg
  C8a Log2FC: −1.21
NM_153179, 100 mg/kg
  Pkhd1 Log2FC: −0.99
NM_153505, 100 mg/kg
  Nckap1l Log2FC: −0.473
NM_172307, 100 mg/kg
  Mbtps2 Log2FC: 0.309
NM_177406, 100 mg/kg
  Cyp4a12a Log2FC: 1.65
NM_177470, 100 mg/kg
  Acaa2 Log2FC: 0.464
NM_177821, 100 mg/kg
  Ep300 Log2FC: −0.258
NM_178659, 100 mg/kg
  Jmjd4 Log2FC: −0.385
NM_178772, 100 mg/kg
  Nceh1 Log2FC: 0.592
NM_178878, 100 mg/kg
  Hadha Log2FC: 1.12
NM_180599, 100 mg/kg
  Mfap3 Log2FC: −0.377
NM_181849, 100 mg/kg
  Fgb Log2FC: −0.336
NM_198095, 100 mg/kg
  Bst2 Log2FC: 0.596
NM_207105, 100 mg/kg
  H2-Ab1 Log2FC: −0.716
NM_207625, 100 mg/kg
  Acsl4 Log2FC: 0.645
NM_207653, 100 mg/kg
  Cflar Log2FC: −0.214
NM_207655, 100 mg/kg
  Egfr Log2FC: −1.12
NM_207692, 100 mg/kg
  Mapk9 Log2FC: 0.185
NM_213659, 100 mg/kg
  Stat3 Log2FC: −0.646
NM_001001892, 100 mg/kg
  H2-K1 Log2FC: −0.284
NM_001001984, 100 mg/kg
  Kdm2a Log2FC: −0.312
NM_001025426, 100 mg/kg
  Depdc5 Log2FC: −0.27
NM_001025575, 100 mg/kg
  Cfhr2 Log2FC: −0.626
NM_001030274, 100 mg/kg
  Ndufs5 Log2FC: 0.414
NM_001033228, 100 mg/kg
  Itga1 Log2FC: −0.394
NM_001033305, 100 mg/kg
  Ndufb6 Log2FC: 0.243
NM_001037713, 100 mg/kg
  Xaf1 Log2FC: −0.742
NM_001038231, 100 mg/kg
  Banf1 Log2FC: 0.319
NM_001038627, 100 mg/kg
  Smurf1 Log2FC: −0.697
NM_001077403, 100 mg/kg
  Nrp2 Log2FC: 0.665
NM_001081211, 100 mg/kg
  Ptafr Log2FC: −0.518
NM_001081315, 100 mg/kg
  Brpf3 Log2FC: 0.434
NM_001099624, 100 mg/kg
  Rapgef2 Log2FC: −0.262
NM_001102410, 100 mg/kg
  Kng2 Log2FC: −0.305
NM_001109045, 100 mg/kg
  Aqp8 Log2FC: −0.993
NM_001111274, 100 mg/kg
  Igf1 Log2FC: −0.496
NM_001113379, 100 mg/kg
  Lrrc32 Log2FC: −0.438
NM_001113563, 100 mg/kg
  Stat5b Log2FC: −0.322
NM_001123382, 100 mg/kg
  Il1r1 Log2FC: −0.998
NM_001127338, 100 mg/kg
  Aldh7a1 Log2FC: −0.252
NM_001162410, 100 mg/kg
  Chuk Log2FC: 0.202
NM_001163507, 100 mg/kg
  Mmm1 Log2FC: −0.231
NM_001164661, 100 mg/kg
  Cyfip1 Log2FC: −0.264
NM_001165894, 100 mg/kg
  Akt1 Log2FC: −0.226
NM_001252472, 100 mg/kg
  Cd84 Log2FC: −0.439
NM_001277944, 100 mg/kg
  Apoc2 Log2FC: −1.26
NM_001291058, 100 mg/kg
  Cd68 Log2FC: −0.613
XM_897036, 100 mg/kg
  Col6a3 Log2FC: −1.06

From patent publication US11730712B2, “Functionalized long-chain hydrocarbon mono- and di-carboxylic acids and derivatives thereof, and their use for the prevention or treatment of disease” (ESPERVITA THERAPEUTICS, INC., priority 2021, dated 2023)
